# Test results: patent US4619925A, “3-Propenyl cephalosporin derivatives” (priority 1985, dated 1986)
# Legend:
# [1] = tested on: fastidious bacteria; experiment: In vitro antibacterial activity against fastidious bacteria (overall); type: cell-based
# From the text: Table 5 contains comparative data for in vitro antibacterial activity against fastidious bacteria.
# [2] = tested on: S. aureus Smith and E. coli Juhl; experiment: Protective effect in mice infected with a lethal inoculum (overall); type: in vivo
# From the text: The data in Table 2 are results of protective doses (PD50) for mice infected with a lethal inoculum of bacteria. Two different bacteria were employed in the studies, one a Gram-positive organism (S. aureus Smith) and the other a Gram-negative organism (E. coli Juhl). The PD50 is that dose which, when administered to a group of injected mice, results in 50% survival after five days. Normally untreated infected mice die within three days following injection of the lethal inoculum.
smiles,measurement,setting,value
"C/C=C\C1=C(C(=O)O)N2C(=O)C(NC(=O)[C@H](N)c3cccc(O)c3)[C@H]2SC1 (stereo partly drawn) [BMY-28272, 7-[(D)-2-amino-2-(3-hydroxyphenyl)acetamido]-3-[(Z)-1-propenyl]-3-cephem-4-carboxylic acid]",activity relative to BMY-28100,[1],almost comparable or better than BMY-28100
same,activity relative to cefaclor or cephalexin,[1],much better than cefaclor or cephalexin
same,effectiveness in vivo,[2],effectiveness of BMY-28272 in vivo is confirmed
